Bridge positions count the residues as written; N and C are the ends. Ends that are not written are not given here.
What was measured:
[1] = molecular target: T1, Shh (Homo sapiens, UniProt Q15465); test: NMR HSQC spectroscopy of labeled Shh with L2 loop peptides; format: binding; details: 2 mM of each peptide
T1 construct: yielding Shh (residues 29-197) lacking the His6-Tag; His6 (N, cleaved yes); made in house; host or cells: E. coli Rosetta 2, minimal/M9 medium with 15NH4Cl
Excerpt: Shh is in the same orientation as in the Hhip-Shh complex in Panel A. Zn^2+ and Ca^2+ cations are shown. […] Surface representation of Shh with residues within 4.5 Å of Hhip (shaded gray) and Cdon (hatched areas). Area within dotted boarder indicates the boundaries of the Cdon footprint, which overlaps the Hhip binding surface. […] Shh histidine residues are shown as sticks with nitrogen atoms shaded dark. The Hhip L2 loop is shown in transparent surface and Zn^2+ cation is shown. Histidine 35 is not shown since the ordered portion of the Shh structure begins at L40. […] The spectral region of the histidine side chains is shown. […] The average mean Shh649 fluorescence intensity (MFI) of two independent dilution series was plotted versus protein concentration, with error bars denoting standard deviations. Ctrl refers to the His-6 (SEQ ID NO: 87) tagged HGF β protein. […] Shh649 (0.33 nM) was preincubated with 56 nM (170-fold excess) of Hhipβ12 wildtype or L2 mutant proteins, 5E1 or controls then bound to Ptch1 cells (black) or 293 cells (gray), washed and analyzed by FACS. Shh649 binding to Ptch1 cells in the absence of inhibitors was normalized to 100% and the data expressed as a percentage of this signal (average of two independent duplicates with standard deviations). Ctrl and CtrlFc refer to HGF β and the IgG1 isotype control Trastuzumab, respectively. […]

[2] = system: Ptch1; test: FACS assay of Shh649 binding to Ptch1 expressing 293 cells and its competition; design: species or system human
Experimental: (§1) Shh649 (1 nM) preincubated with indicated proteins was bound to Ptch1 expressing cells, washed and analyzed by FACS. The average mean Shh649 fluorescence intensity (MFI) of two independent dilution series was plotted versus inhibitor concentration, with error bars denoting standard deviations. […] Assays were carried out using octylated Ihh wildtype and T154I proteins. Concentration dependent relative luciferase units (RLU) are plotted as the average of four independent dilution series±standard deviation and normalized to the maximal Ihh WT stimulation on each plate as 100%. […] The data is representative of three independent experiments.
Shh is in the same orientation as in the Hhip-Shh complex in Panel A. Zn^2+ and Ca^2+ cations are shown. […] Surface representation of Shh with residues within 4.5 Å of Hhip (shaded gray) and Cdon (hatched areas). Area within dotted boarder indicates the boundaries of the Cdon footprint, which overlaps the Hhip binding surface. […] Shh histidine residues are shown as sticks with nitrogen atoms shaded dark. The Hhip L2 loop is shown in transparent surface and Zn^2+ cation is shown. Histidine 35 is not shown since the ordered portion of the Shh structure begins at L40. […] The spectral region of the histidine side chains is shown. […] The average mean Shh649 fluorescence intensity (MFI) of two independent dilution series was plotted versus protein concentration, with error bars denoting standard deviations. Ctrl refers to the His-6 (SEQ ID NO: 87) tagged HGF β protein. […] Shh649 (0.33 nM) was preincubated with 56 nM (170-fold excess) of Hhipβ12 wildtype or L2 mutant proteins, 5E1 or controls then bound to Ptch1 cells (black) or 293 cells (gray), washed and analyzed by FACS. Shh649 binding to Ptch1 cells in the absence of inhibitors was normalized to 100% and the data expressed as a percentage of this signal (average of two independent duplicates with standard deviations). Ctrl and CtrlFc refer to HGF β and the IgG1 isotype control Trastuzumab, respectively. The data is representative of at least three independent experiments.
Shh649, conjugated to Dylight 649 (Pierce) at its C-terminus (vide supra), was incubated at 0.33 or 1 nM for 1 h on ice with various Hhip or control proteins prior to incubation with HEK-293 cells (293) or 293 cells expressing full length human Patched-1 (Ptch1-293 clone 10) (Carpenter D. et al. (1998) Proc. Natl. Acad. Sci. USA 95:13630-13634) in FACS buffer (3% FBS in PBS) for 1 h on ice. After washing 3 times in FACS buffer, live cells (sorted by propidium iodide exclusion) were analyzed by flow cytometry in the APC channel using a FACSCalibur (BD Biosciences). Control proteins included His6-Shh, His6-Ihh, HGF β-His639, Trastuzumab (Genentech, Inc.) as a human IgG1 isotype control for Hhip1β12-Fc, and mIgG1 (Molecular Probes Z25105) as a murine Mab control for anti-Shh 5E1 Mab34.

[3] = molecular target: Hh signaling; test: S12 Gli luciferase assay, activation of Hh signaling; format: cell-based, murine; details: octylated Ihh wildtype and T154I proteins
Experimental: as §1
Briefly, S12 cells, which are 10T1/2 fibroblasts stably transfected with 8× Gli-binding sites fused to a luciferase reporter (Frank-Kamenetsky et al. (2002) J. Biol. 1:10), were plated at 10,000 cells/well of a white-walled clear bottomed 96-well plate (Costar 3610) for 48 hrs in regular growth medium (HG-DMEM, 10% FBS, 1% glutamine). After 24 h, the media was removed and Shh-producing HT29 cells at 20,000 cells/well were plated and the co-culture was grown in regular media. […] Gli-luciferase activity was measured using a HTS-Steady Lite luciferase detection kit (Perkin Elmer); multiple assays were carried out, each in triplicate. […]

T1 sequence (Q15465 29-197): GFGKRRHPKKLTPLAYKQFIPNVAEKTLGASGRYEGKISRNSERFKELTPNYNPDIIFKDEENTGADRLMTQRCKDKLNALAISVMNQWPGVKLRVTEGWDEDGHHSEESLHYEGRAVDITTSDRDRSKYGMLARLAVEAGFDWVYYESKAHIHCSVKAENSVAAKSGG

| Substance | displacement of Ptch1 L2-like peptide from Shh by ^13C, ^1H-HSQC [1] | competition of Shh649 binding to Ptch1 cells (in words) [2] | EC50 [3] |
| --- | --- | --- | --- |
| GCGMITLDDMEEMDGLSDFCG (disulfide 2-20 (inferred); listed as Homo sapiens) [Hhip1β12 L2 peptide] | displaces Ptch1 L2-like peptide from Shh |  |  |
| Ihh: human Indian Hedgehog, residues 29-202 |  | dose dependent manner | 16 nM |
| T154I: type A1 brachydactyly mutant Ihh T154I |  |  | 330 nM |

— patent US8623997B2, “Variant Hhip1 protein and methods and uses thereof” (Curis, Inc., priority 2008, dated 2014)
